Assay results from PubChem BioAssay (NCI).
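48-hour exposure; five concentrations; linearly interpolated endpoints. TGI denotes the concentration required for complete inhibition of growth.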

Key:
Test in all cases: NCI-60 cell line screen, 48 h
[1] = test system: HOP-92 NSCLC
[2] = test system: TK-10 renal
[3] = test system: IGROV1 ovarian
[4] = test system: RPMI-8226 leukemia
[5] = test system: UACC-257 melanoma
[6] = test system: SK-MEL-28 melanoma
[7] = test system: SNB-19 CNS
[8] = test system: OVCAR-3 ovarian
[9] = test system: HL-60(TB) leukemia
[10] = test system: HCC-2998 colon
[11] = test system: LOX IMVI melanoma
[12] = test system: HCT-15 colon
[13] = test system: UO-31 renal
[14] = test system: A549 NSCLC
[15] = test system: SF-539 CNS
[16] = test system: HS 578T breast
[17] = test system: OVCAR-4 ovarian
[18] = test system: CAKI-1 renal
[19] = test system: NCI-H226 lung
[20] = test system: NCI-H522 lung
[21] = test system: SK-OV-3 ovarian
[22] = test system: CCRF-CEM leukemia
[23] = test system: 786-0 renal
[24] = test system: MDA-N
[25] = test system: OVCAR-5 ovarian
[26] = test system: NCI-H460 lung
[27] = test system: BT-549 breast
[28] = test system: SW-620 colon
[29] = test system: MDA-MB-435
[30] = test system: M14 melanoma
[31] = test system: MALME-3M melanoma
[32] = test system: OVCAR-8 ovarian
[33] = test system: ACHN renal
[34] = test system: U251 CNS
[35] = test system: HCT-116 colon
[36] = test system: MDA-MB-231 breast
[37] = test system: SR leukemia
[38] = test system: COLO 205 colon
[39] = test system: HT29 colon
[40] = test system: UACC-62 melanoma
[41] = test system: NCI-H23 lung
[42] = test system: K-562 leukemia
[43] = test system: SN12C renal
[44] = test system: SF-268 CNS
[45] = test system: KM12 colon
[46] = test system: SK-MEL-2 melanoma
[47] = test system: SNB-75 CNS
[48] = test system: A498 renal
[49] = test system: SK-MEL-5 melanoma
[50] = test system: T-47D breast
[51] = test system: MCF7 breast
[52] = test system: DU-145 prostate
[53] = test system: EKVX NSCLC
[54] = test system: MOLT-4 leukemia
[55] = test system: RXF 393 renal
[56] = test system: HOP-62 NSCLC
[57] = test system: PC-3 prostate
[58] = test system: SF-295 CNS

Work on `COC1CC(OC2CCC3(C)C(=CCC4C3C(OC(C)=O)C(OC(=O)CC(C)C)C3(C)C(C(C)=O)CCC43O)C2)OC(C)C1OC1CC(OC)C(OC2CC(OC)C(OC3OC(C)C(O)C(OC)C3O)C(C)O2)C(C)O1` (stereo not drawn) yielded a TGI [1] of 57.6 µM, a TGI [2] greater than 100 µM and a TGI [3] greater than 100 µM. The TGI [4] was 45.8 µM, the TGI [5] was greater than 100 µM and the TGI [6] was greater than 100 µM. The TGI [7] was greater than 100 µM, the TGI [8] was greater than 100 µM and the TGI [9] was 74.5 µM. For the same molecule, the TGI [10] was 70.3 µM, the TGI [11] was 43.5 µM and the TGI [12] was greater than 100 µM. The TGI [13] was greater than 100 µM, the TGI [14] was greater than 100 µM and the TGI [15] was 51.2 µM. It also gave a TGI [16] greater than 100 µM, a TGI [17] greater than 100 µM and a TGI [18] greater than 100 µM. For the same molecule, the TGI [19] was 89.9 µM, the TGI [20] was greater than 100 µM and the TGI [21] was greater than 100 µM. It also gave a TGI [22] of 72.6 µM, a TGI [23] of 59.9 µM and a TGI [24] greater than 100 µM. The TGI [25] was greater than 100 µM, the TGI [26] was greater than 100 µM and the TGI [27] was 69.6 µM. For the same molecule, the TGI [28] was 94.7 µM, the TGI [29] was 63.5 µM and the TGI [30] was greater than 100 µM. It also gave a TGI [31] greater than 100 µM, a TGI [32] greater than 100 µM and a TGI [33] greater than 100 µM. It also gave a TGI [34] greater than 100 µM, a TGI [35] of 60.6 µM and a TGI [36] of 65.6 µM. For the same molecule, the TGI [37] was 62 µM, the TGI [38] was 45 µM and the TGI [39] was 42.8 µM. It also gave a TGI [40] greater than 100 µM, a TGI [41] greater than 100 µM and a TGI [42] greater than 100 µM. For the same molecule, the TGI [43] was greater than 100 µM, the TGI [44] was greater than 100 µM and the TGI [45] was greater than 100 µM. The TGI [46] was 93.3 µM, the TGI [47] was 70 µM and the TGI [48] was greater than 100 µM. The TGI [49] was 42.7 µM, the TGI [50] was greater than 100 µM and the TGI [51] was 93.6 µM. It also gave a TGI [52] greater than 100 µM, a TGI [53] greater than 100 µM and a TGI [54] of 45.6 µM. The TGI [55] was 47.2 µM, the TGI [56] was greater than 100 µM and the TGI [57] was greater than 100 µM. The TGI [58] was greater than 100 µM.
